Laboratory results: ChEMBL document CHEMBL2163273, “Orally active adenosine A(1) receptor agonists with antinociceptive effects in mice” (J Med Chem, 2012)
Active and inactive are the calls of the source. No cut-off for these calls is given here.

Key:
Adenosine receptor A1 [1] = target: T1, Adenosine receptor A1 (Homo sapiens, UniProt P30542); experiment: Agonist activity at human A1AR expressed in HEK293T/17 cells assessed as inhibition of isoproterenol-induced cAMP accumulation incubated for 10 mins by luciferase reporter assay; assay type: functional, cell-based, HEK-293T
T1 sequence (P30542 whole entry): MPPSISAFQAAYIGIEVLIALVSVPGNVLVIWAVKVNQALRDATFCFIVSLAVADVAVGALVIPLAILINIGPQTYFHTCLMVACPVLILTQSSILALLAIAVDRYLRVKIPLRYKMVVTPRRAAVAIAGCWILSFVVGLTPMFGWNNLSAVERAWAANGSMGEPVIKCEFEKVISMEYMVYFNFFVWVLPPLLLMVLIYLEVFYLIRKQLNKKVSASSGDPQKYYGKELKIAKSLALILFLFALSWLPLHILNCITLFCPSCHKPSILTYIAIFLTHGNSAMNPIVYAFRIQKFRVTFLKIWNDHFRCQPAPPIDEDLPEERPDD

Adenosine receptor A1 [2] = target: T1, Adenosine receptor A1; experiment: Displacement of [3H]2-chloro-N6-cyclopentyladenosine from human A1AR
Adenosine receptor A1 [3] = target: T1, Adenosine receptor A1; experiment: Agonist activity at human A1AR assessed as induction of Ca2+ ion mobilization by orthogonal functional assay
[4] = target: T2, Adenosine receptor A2b (Homo sapiens) (UniProt P29275); experiment: Displacement of [3H]2-chloro-N6-cyclopentyladenosine from human A2BR at 10 uM
T2 sequence (whole entry): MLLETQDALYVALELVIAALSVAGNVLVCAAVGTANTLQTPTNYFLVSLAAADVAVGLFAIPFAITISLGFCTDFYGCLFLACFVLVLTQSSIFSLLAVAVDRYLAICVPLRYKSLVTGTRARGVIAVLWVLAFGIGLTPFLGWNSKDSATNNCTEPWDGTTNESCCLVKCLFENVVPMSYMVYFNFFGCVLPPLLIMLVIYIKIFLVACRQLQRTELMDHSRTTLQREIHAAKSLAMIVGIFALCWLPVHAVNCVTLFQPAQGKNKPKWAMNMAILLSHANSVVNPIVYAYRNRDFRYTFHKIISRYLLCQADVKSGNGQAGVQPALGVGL

Adenosine receptor A3 = target: T3, Adenosine receptor A3 (Homo sapiens, UniProt P0DMS8); experiment: Displacement of [3H]2-chloro-N6-cyclopentyladenosine from human A3AR
T3 sequence (P0DMS8 whole entry): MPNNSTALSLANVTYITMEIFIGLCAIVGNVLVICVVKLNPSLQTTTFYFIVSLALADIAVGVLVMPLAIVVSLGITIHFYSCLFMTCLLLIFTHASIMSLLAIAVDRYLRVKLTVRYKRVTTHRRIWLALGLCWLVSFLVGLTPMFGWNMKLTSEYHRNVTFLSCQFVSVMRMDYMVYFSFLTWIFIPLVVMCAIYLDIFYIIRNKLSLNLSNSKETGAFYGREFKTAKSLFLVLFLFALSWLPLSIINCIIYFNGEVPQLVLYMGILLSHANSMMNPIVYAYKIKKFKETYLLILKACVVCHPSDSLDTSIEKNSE

Homo sapiens [5] = organism: Homo sapiens; experiment: Selectivity ratio of Ki for human A3AR to Ki for human A1AR
Adenosine receptor A2a = Adenosine receptor A2a (Homo sapiens, UniProt P29274); experiment: Displacement of [3H]2-chloro-N6-cyclopentyladenosine from human A2AR
Chain of Adenosine receptor A2a (P29274 whole entry): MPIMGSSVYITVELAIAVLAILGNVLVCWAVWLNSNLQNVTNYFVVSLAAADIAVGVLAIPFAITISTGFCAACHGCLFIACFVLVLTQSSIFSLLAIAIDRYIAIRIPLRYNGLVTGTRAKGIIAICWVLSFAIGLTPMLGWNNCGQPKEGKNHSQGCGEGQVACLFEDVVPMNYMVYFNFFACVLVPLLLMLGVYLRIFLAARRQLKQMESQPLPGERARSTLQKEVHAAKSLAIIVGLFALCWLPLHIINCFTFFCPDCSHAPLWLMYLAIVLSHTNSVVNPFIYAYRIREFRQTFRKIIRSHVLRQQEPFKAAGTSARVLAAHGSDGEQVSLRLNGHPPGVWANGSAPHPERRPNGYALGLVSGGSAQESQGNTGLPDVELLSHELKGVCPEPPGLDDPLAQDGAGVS

Adenosine receptor A1 [6] = target: T1, Adenosine receptor A1; experiment: Agonist activity at human A1AR expressed in HEK293T/17 cells assessed as inhibition of forskolin-induced cAMP accumulation incubated for 10 mins by luciferase reporter assay; assay type: functional, cell-based, HEK-293T
Mus musculus [7] = experiment: Cardiovascular toxicity in A1AR knock out C57BL/6 mouse assessed as change in body temperature at 5000 nmol/kg, po; assay type: organism-based; settings: in vivo
Mus musculus [8] = experiment: Antinociceptive effect in orally dosed C57BL/6 mouse assessed as inhibition of noxious thermal sensitivity by measuring paw withdrawal latency; assay type: functional, organism-based
Mus musculus [9] = experiment: Cardiovascular toxicity in C57BL/6 mouse assessed as change in body temperature at 5000 nmol/kg, po; assay type: organism-based; settings: in vivo
Mus musculus [10] = experiment: Cardiovascular toxicity in A1AR knock out C57BL/6 mouse assessed as change in heart rate at 5000 nmol/kg, po; assay type: organism-based; settings: in vivo
Mus musculus [11] = experiment: Cardiovascular toxicity in C57BL/6 mouse assessed as change in heart rate at 5000 nmol/kg, po; assay type: organism-based; settings: in vivo
Mus musculus [12] = experiment: Antinociceptive effect in A1AR knock out C57BL/6 mouse assessed as inhibition of noxious thermal sensitivity by measuring paw withdrawal latency at 5 nmol/kg, it; assay type: functional, organism-based
Mus musculus [13] = experiment: Antinociceptive effect in intravenously dosed C57BL/6 mouse assessed as inhibition of noxious thermal sensitivity by measuring paw withdrawal latency; assay type: functional, organism-based
Homo sapiens [14] = organism: Homo sapiens; experiment: Selectivity ratio of Ki for human A2AR to Ki for human A1AR
[15] = target: T2, Adenosine receptor A2b (Homo sapiens); experiment: Displacement of [3H]2-chloro-N6-cyclopentyladenosine from human A2BR at 50 uM
Mus musculus [16] = experiment: Antinociceptive effect in intrathecally dosed C57BL/6 mouse assessed as inhibition of noxious thermal sensitivity by measuring paw withdrawal latency; assay type: functional, organism-based

With `Nc1ncnc2c1ncn2[C@@H]1O[C@H](COP(=O)(O)O)[C@@H](O)[C@H]1O` [ADENOSINE PHOSPHATE] the EC50 (Adenosine receptor A1 [1]) was 500 nM.
Compound `OCC(Cc1ccccc1)Nc1nc(Cl)nc2c1ncn2[C@@H]1O[C@H](CO)[C@@H](O)[C@H]1O` (mixture of isomers) has an EC50 (Adenosine receptor A1 [1]) of 550 nM.
`COP(=O)(OC)OCC(Cc1ccccc1)Nc1nc(Cl)nc2c1ncn2[C@@H]1O[C@H](CO)[C@@H](O)[C@H]1O` (mixture of isomers) gave an EC50 (Adenosine receptor A1 [1]) of 5400 nM.
In the case of `COP(=O)(OC)OC[C@H]1O[C@@H](n2cnc3c(NC4CCCC4)ncnc32)[C@H](O)[C@@H]1O`, the EC50 (Adenosine receptor A1 [1]) is reported as 4400 nM.
For `O=P(O)(O)OC[C@H]1O[C@@H](n2cnc3c(NC4CCCC4)nc(Cl)nc32)[C@H](O)[C@@H]1O`, the Ki (Adenosine receptor A1 [2]) was 25 nM, the EC50 (Adenosine receptor A1 [3]) was 21 nM and the inhibition [4] was 0%. For the same compound, the Ki (Adenosine receptor A3) was 1300 nM, the Ratio Ki (Homo sapiens [5]) was 52 and the Ki (Adenosine receptor A2a) was 1600 nM. For the same compound, the EC50 (Adenosine receptor A1 [1]) was 72 nM.
`CCOC(=O)CNP(=O)(NCC(=O)OCC)OC[C@H]1O[C@@H](n2cnc3c(NC4CCCC4)nc(Cl)nc32)[C@H](O)[C@@H]1O` gave an EC50 (Adenosine receptor A1 [1]) of 530 nM.
`OC[C@H]1O[C@@H](n2cnc3c(N[C@H]4CCC[C@@H]4O)ncnc32)[C@H](O)[C@@H]1O` [GR-79236] was tested, and the EC50 (Adenosine receptor A1 [6]) was 5.9 nM.
With `O=P(OCCc1ccccc1)(OCCc1ccccc1)OC[C@H]1O[C@@H](n2cnc3c(NC4CCCC4)nc(Cl)nc32)[C@H](O)[C@@H]1O` the EC50 (Adenosine receptor A1 [1]) was 6100 nM.
`OC[C@H]1O[C@@H](n2cnc3c(NC4CCCC4)ncnc32)[C@H](O)[C@@H]1O` [N6-CYCLOPENTYLADENOSINE] was tested, and the Activity (Mus musculus [7]) was “Non-toxic”, the Activity (Mus musculus [8]) was “Dose-dependent effect” and the Activity (Mus musculus [9]) was “Toxic”. For the same compound, the Activity (Mus musculus [10]) was “Non-toxic” and the Activity (Mus musculus [11]) was “Toxic”.
For `Nc1ncnc2c1ncn2[C@@H]1O[C@H](CO)[C@@H](O)[C@H]1OP(=O)(O)O`, the EC50 (Adenosine receptor A1 [1]) was 490 nM.
`Nc1ncnc2c1ncn2[C@@H]1O[C@H](CO)[C@@H](OP(=O)(O)O)[C@H]1O` showed an EC50 (Adenosine receptor A1 [1]) of 440 nM.
In the case of `CCOP(=O)(OCC)OC[C@H]1O[C@@H](n2cnc3c(NC4CCCC4)nc(Cl)nc32)[C@H](O)[C@@H]1O`, the EC50 (Adenosine receptor A1 [1]) is reported as greater than 10000 nM.
Work on `COP(=O)(OC)O[C@@H]1CCC[C@H]1Nc1nc(Cl)nc2c1ncn2[C@@H]1O[C@H](CO)[C@@H](O)[C@H]1O` yielded an EC50 (Adenosine receptor A1 [6]) greater than 10000 nM.
`COP(=O)(OC)OC[C@H]1O[C@@H](n2cnc3c(NC4CCCC4)nc(Cl)nc32)[C@H](O)[C@@H]1O` was tested, and the Activity (Mus musculus [7]) was “Non-toxic”, the Activity (Mus musculus [12]) was “inactive” and the Activity (Mus musculus [13]) was “Dose-dependent effect”. For the same compound, the Ki (Adenosine receptor A1 [2]) was 36 nM, the EC50 (Adenosine receptor A1 [3]) was 520 nM and the Activity (Mus musculus [8]) was “Dose-dependent effect”. For the same compound, the Ki (Adenosine receptor A3) was 450 nM, the Activity (Mus musculus [9]) was “Non-toxic” and the Ratio Ki (Homo sapiens [14]) was 130. For the same compound, the Ratio Ki (Homo sapiens [5]) was 12, the Activity (Mus musculus [10]) was “Non-toxic” and the inhibition [15] was 7%. For the same compound, the Activity (Mus musculus [16]) was “Dose-dependent effect”, the Ki (Adenosine receptor A2a) was 4700 nM and the EC50 (Adenosine receptor A1 [1]) was 1400 nM. The Activity (Mus musculus [11]) was “Non-toxic”.
Work on `O=P(O)(O)OC[C@H]1O[C@@H](n2cnc3c(NC4CCCC4)ncnc32)[C@H](O)[C@@H]1O` yielded an EC50 (Adenosine receptor A1 [1]) of 100 nM.
`O=P(O)(O)O[C@@H]1CCC[C@H]1Nc1nc(Cl)nc2c1ncn2[C@@H]1O[C@H](CO)[C@@H](O)[C@H]1O` showed an EC50 (Adenosine receptor A1 [6]) of 120 nM.
`O=P(O)(O)OCC(Cc1ccccc1)Nc1nc(Cl)nc2c1ncn2[C@@H]1O[C@H](CO)[C@@H](O)[C@H]1O` (mixture of isomers) was tested, and the EC50 (Adenosine receptor A1 [1]) was 1500 nM.
